Source: paper PMC12655733, “Design, Synthesis and Evaluation of the First 2-Alkynyl(aza)indole ^18F Probe Targeting α-Synuclein Aggregates” (Pharmaceuticals, 2025)

Legend:
α-syn fibrils [1] = biological target: T1, α-syn fibrils (Homo sapiens, UniProt P37840); assay: Inhibition of thioflavin T binding to α-syn fibrils (fluorescence competition), Ki determination; conditions: calculated from IC50, competition with ThT 500 nM, fibrils 200 nM, mean ± SD of 3 experiments
T1 construct: made in house; host or cells: Escherichia coli BL21(DE3)
Protocol: (§1) Wild-type α-syn and Aβ1-42 were expressed in the Escherichia coli strain BL21(DE3) (Stratagene, La Jolla, CA, USA) and purified as described. […] For the Aβ1-42 peptide, the concentration was determined by a fluorometric method using the reactive compound fluorescamine (Sigma, San Jose, CA, USA) that reacts with primary amino groups to form a fluorescent product. The human Tau protein (isoform h2N4RTau) was expressed in the pET11d vector in the Escherichia coli strain BL21(DE3) (Stratagene, La Jolla, CA, USA) and purified as described.
(§2) For assembly into fibrils, α-syn was incubated in 50 mM Tris-HCl, pH 7.5, 150 mM KCl at 37 °C under continuous shaking for 4 days. Lyophilized Aβ1-42 was dissolved in 1,1,1,3,3,3-hexafluoro-2-propanol (HFIP) at a concentration of 0.2 mg/mL and incubated for 24 h at 37 °C to achieve complete solubilization. HFIP was evaporated under a nitrogen stream to obtain a dry film. To start assembly into fibrils, the dry peptide was resuspended in PBS pH 7.4, 10% (v/v) DMSO and incubated at 37 °C without shaking for 3 days. The Tau protein was assembled in fibrils in a PBS buffer containing 1 mM of DTT in the presence of 1/12 heparin (v/v) at 37 °C under shaking. […] Protein fibrils were systematically examined by transmission electron microscopy (TEM) in a Jeol 1400 transmission electron microscope following adsorption onto carbon-coated 200 mesh grids and negative staining with 1% uranyl acetate. The images were recorded with a Gatan Orius CCD camera (Gatan, Pleasanton, CA, USA). Finally, the percentage of α-syn or Aβ1-42 aggregated into fibrils was assessed by pelleting fibrils at 40,000× g for 20 min and by determining the concentration of soluble protein/peptide remaining in the supernatant.
(§3) The samples were incubated for 1 h at room temperature to achieve complete equilibration.

α-syn fibrils [2] = biological target: T1, α-syn fibrils; assay: Direct fluorescence titration on α-syn fibrils: Kd and Bmax; assay type: binding
From the text: (§4) In view of the interesting properties of compounds 33–39, we decided to switch to azaindole structures and to study the impact of the position of the nitrogen atom in the 6-membered ring on binding to fibrils. At this step we measured, in addition to the Ki values, the direct binding of each compound to fibrils through the fluorescence in the fraction bound to fibrils, which allowed us to determine the affinity values (Kd, Table 1). […] We therefore prepared a fluorinated derivative of compound 43, i.e., 45.
(§5) Fresh solutions of each tested compound (2.5 mM in DMSO) were diluted in PBS pH 7.4 at concentrations ranging from 0.5 nM to 5 µM in the presence or absence of α-syn, Aβ1-42, or Tau fibrils (200 nM, 500 nM, or 200 nM, respectively) in a final volume of 2 mL. After 1 h incubation at room temperature, the binding of each compound to α-syn, Aβ1-42, or Tau fibrils was assessed by fluorescence measurements using the appropriate excitation/emission wavelengths (i.e., those yielding the highest fluorescence ratio between fibril-bound and free compound). For any given concentration of compound added to the fibrils, the concentrations of compound bound to the fibrils and free in solution were determined on the basis of the measured fluorescence. Since at each point of the titration: Fm = FB × B + FF × (T − B) where Fm is the measured fluorescence of the compound in the presence of fibrils at a given compound concentration T, FB is the specific molar fluorescence of the bound compound, FF is the specific molar fluorescence of the free compound, and B is the concentration of compound bound to the fibrils at any point of the titration. FF was determined by measuring the fluorescence of known compound concentrations in the absence of fibrils. FB was determined by measuring the maximum fluorescence of known compound concentrations upon saturation with α-syn, Aβ1-42, or Tau fibrils.
(§6) Therefore, at each point of the titration, the concentration of bound compound B could be determined and was B = (Fm − FF × T)/FB − FF. The B values thus determined versus the respective concentrations of free compound were analyzed by fitting to the Michaelis-Menten equation.

[3] = biological target: T2, Tau fibrils (isoform h2N4RTau) (Homo sapiens, UniProt P10636); assay: Direct fluorescence titration on Tau fibrils: Kd and Bmax; assay type: binding
T2 construct: made in house; host or cells: Escherichia coli BL21(DE3), pET11d vector
From the text: as §4, §5, §6

Aβ1-42 fibrils [4] = biological target: T3, Aβ1-42 fibrils (Homo sapiens, UniProt P05067); assay: Inhibition of thioflavin T binding to Aβ1-42 fibrils (fluorescence competition), Ki determination; conditions: calculated from IC50, competition with ThT 500 nM, fibrils 500 nM, mean ± SD of 3 experiments; read-out: Ki Aβ
T3 construct: Wild-type α-syn and Aβ1-42 were expressed; made in house; host or cells: Escherichia coli BL21(DE3)
Protocol: as §1, §2, §3

[5] = biological target: T2, Tau fibrils (isoform h2N4RTau); assay: Inhibition of thioflavin T binding to Tau fibrils (fluorescence competition), Ki determination; conditions: calculated from IC50, competition with ThT 500 nM, fibrils 200 nM, mean ± SD of 3 experiments
Protocol: as §1, §2, §3

Aβ1-42 fibrils [6] = assay: Direct fluorescence titration on Aβ1-42 fibrils: Kd and Bmax; assay type: binding; conditions: from Kd values
From the text: as §4, §5, §6

Aβ1-42 fibrils [7] = biological target: T3, Aβ1-42 fibrils; assay: as above; assay type: binding; conditions: for Kd: direct assay on fibrils, mean ± SD of 3 experiments, read-out: Kd Aβ
From the text: as §4, §5, §6

[8] = Octanol–water partition coefficient at pH 7.4 (LogD); assay type: physicochemical; conditions: pH 7.4, mean ± SD on three independent experiments
α-syn in MSA tissues = biological target: α-syn in MSA tissues; set-up: method as in PMID 38352848; conditions: cited from earlier work
[9] = direct assay on fibrils, mean ± SD of 3 experiments
[10] = density of binding sites, Scatchard analysis

T3 sequence (P05067 672-713): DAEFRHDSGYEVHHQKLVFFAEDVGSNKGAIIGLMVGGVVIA
T2 sequence (P10636 1-441 isoform P10636-8): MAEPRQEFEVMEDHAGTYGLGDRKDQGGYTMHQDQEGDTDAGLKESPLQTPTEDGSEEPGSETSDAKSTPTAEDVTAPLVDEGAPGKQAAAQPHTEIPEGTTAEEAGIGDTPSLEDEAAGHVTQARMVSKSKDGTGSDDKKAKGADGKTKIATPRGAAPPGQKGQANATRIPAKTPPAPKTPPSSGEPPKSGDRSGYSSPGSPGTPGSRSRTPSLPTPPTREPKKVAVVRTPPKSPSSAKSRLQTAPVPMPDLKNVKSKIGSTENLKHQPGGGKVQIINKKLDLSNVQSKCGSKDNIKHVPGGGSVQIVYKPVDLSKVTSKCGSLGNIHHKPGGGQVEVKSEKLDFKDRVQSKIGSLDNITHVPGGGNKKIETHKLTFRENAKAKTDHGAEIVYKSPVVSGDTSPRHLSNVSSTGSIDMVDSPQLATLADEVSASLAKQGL

Compound	Ki (α-syn fibrils [1]) [nM]	Kd (α-syn fibrils [2]; [9]) [nM]	Kd α-Syn (α-syn fibrils [2]; [9])	Kd [3, 9] [nM]	Kd Tau [3, 9]	Ki (Aβ1-42 fibrils [4]) [nM]	Ki [5] [nM]	reduction of affinity for Aβ versus α-syn and tau fibrils (Aβ1-42 fibrils [6]) [fold]	Kd (Aβ1-42 fibrils [7]) [nM]	α-syn monomers per 1 compound bound (α-syn fibrils [2]; corresponding to Bmax)	Bmax on α-syn fibrils (α-syn fibrils [2]; [10]) [nmol/µmol α-syn fibrils]	tau monomers per 1 compound bound ([3]; corresponding to Bmax) [tau monomers]	Bmax on tau fibrils [3, 10] [nmol/µmol tau fibrils]	logD [8]	Aβ monomers per 1 compound bound (Aβ1-42 fibrils [7]; corresponding to Bmax) [Aβ monomers]	Bmax on Aβ fibrils (Aβ1-42 fibrils [7]; [10]) [nmol/µmol Aβ fibrils]	Kd (α-syn in MSA tissues) [nM]
CN(C)c1ccc(C#Cc2cc3cccnc3[nH]2)cc1 [Compound 43]	4.7 ± 2	0.53 ± 0.2	sub-nanomolar	0.44 ± 0.1	sub-nanomolar	24.4 ± 9	4.61 ± 0.2	20	11.8 ± 3								
CN(CCF)c1ccc(C#Cc2cc3cccnc3[nH]2)cc1 [Compound 45]		2.4 ± 1		0.97 ± 0.4					1.2 ± 1	7 α-syn monomers	141.1 ± 45	20	46.6 ± 5.0	2.59 ± 0.141	600	1.8 ± 0.6	
O=C1c2cn(-c3ccc(N4CC[C@@H]([18F])C4)nc3)nc2CN1c1cccnc1 [[^18F] ACI-12589]																	22 to 30
